Results: patent US7115574B2, “System and method for support legacy operating system booting in a legacy-free system” (priority 2001, dated 2006)
“And” between values parts separate entries of the source, which are not always exact repeats. Equal values may be shown once.

Legend:
Format in all cases: cell-based
[1] = tested on: N9 clone of murine microglial cells; experiment: cAMP accumulation in N9 microglia; settings: for cAMP accumulation: resting cells and cells co-incubated with LPS+IFN-γ; for concentration of strongest effect on cAMP accumulation: resting microglia, 1, 10, 50 μM tested
Procedure: cAMP accumulation in N9 cells was measured as previously described. […] Reactions were stopped after 3 min by aspirating supernatants, immediately adding 1 mL ethanol at −20° C. and freezing. cAMP content in the ethanol-soluble fraction was measured using an enzyme immunoassay kit (Amersham).

[2] = tested on: C. albicans; experiment: cAMP content of C. albicans (EIA); settings: 10^−6 M; for cAMP content in the yeast: 3 minutes, permeabilized C. albicans
Procedure: C. albicans (10^6/ml), permeabilized with toluene/ethanol, were incubated at 37° C. with continuous shaking in the presence of 10^−6 M α-MSH(1-13) (SEQ ID NO: 3), (11-13), (SEQ ID NO: 1), forskolin, an agent known to increase intracellular cAMP, or in medium alone. The reaction was stopped after 3 minutes by the addition of ice cold ethanol, cAMP was measured in duplicate using a commercial enzyme immunoassay (EIA) kit (Amersham, United Kingdom) after extraction via the liquid-phase method according to manufacturer's instructions. The effect of forskolin (10^−6 M) on C. albicans colony formation was determined using the same procedure as for α-MSH peptides.

[3] = tested on: N9 clone of murine microglial cells; experiment: TNF-α, IL-6 and NO2− production by LPS+IFN-γ activated microglia; settings: for concentration most effective at inhibiting cytokine formation: LPS+IFN-γ stimulated microglia, 1-100 μM tested
Procedure: See Delgado, R., Carlin, A., Alraghi, L., Demitri, M., Meda, L., Galimberti, D., Pierluigi, B., Lipton, J. M., Catania, A., Melanocortin Peptides Inhibit Production of Proinflammatory Cytokines and Nitric Oxide by Activated Microglia, 63 J. of Leukocyte Biol. 740 (1998). […] The N9 clone of murine microglial cells was obtained by immortalization of embryonic brain cultures with the 3RV retrovirus carrying an activated v-myconcogene. N9 cells were cultured in T-75-cm^2 culture flasks (Coming, Cambridge, Mass.) and maintained at 37° C. in a humidified incubator under 5% CO2 atmosphere in RPMI 1640 supplemented with 2 mM L-glutamine, 50 U/mL penicillin G, 50 μg/mL streptomycin sulfate (GIBCO-BBL, Paisley, UK), and 10% heat-inactivated fetal bovine serum (FBS, Hyclone Lab, Inc., Logan, Utah) until experiments were performed. Cells were used between the first and the tenth passage.
Sub-confluent microglial cells were washed twice with phosphate-buffered saline (PBS) and incubated with trypsin 0.025% and ethylenediaminetetraacetate (EDTA) 0.02% without calcium and magnesium for 3 min. at 37° C. to detach the cells from the culture flask. Cells were then resuspended in medium and incubated in 24-well tissue-culture plates at a concentration of 2×10^5 cells/mL for 16 h in a humidified incubator (37° C., 5% CO2). Growth medium was removed and cell monolayers were stimulated with 10 ng/mL lipopolysaccharide (LPS, from Escherichia coli 055:B5, Sigma Chemical Co., St. Louis, Mo.) plus 1 U/ml, murine IFN-γ (Sigma). […] Although production of TNF-α and NO was reduced to even much lower concentrations of the peptides, concentrations in the micromolar range had the most profound and consistent inhibitory effects. […] Cell-free supernatants were harvested after 24 h incubation and assayed for TNF-α, IL-6 and NO2. Viability of cells was assessed by trypan blue exclusion for each experimental condition: it was consistently >98%. Dexamethasone (Sigma) and N-monomethyl-L-arginine (L-NMMA: 100 μM, Cayman Chemical, Ann Arbor, Mich.) were used as positive controls for TNF-α and NO inhibition, respectively. Tests were repeated in at least three independent experiments and assays were performed in triplicate.
TNF-α bioactivity was measured in supernatants of cell cultures by standard cytotoxicity assay using L929 cells and recombinant human TNF-α (Sigma) as standard. The detection limit of the bioassay was 20 pg/mL. IL-6 was measured using a commercial murine enzyme-linked immunosorbent assay (ELISA: RPN 2714, Amersham, Little Chalfont, UK).
NO is rapidly oxidized to nitrite in culture medium, and nitrite (NO2^−) concentration is an indicator of NO production. Cell-free culture supernatants were mixed with equal amounts of Griess reagent (1% sulfanilamide, 0.1% naphtylethylenediamide in 2.5% phosphoric acid) in wells of 96-well ELISA plates. Samples were incubated at room temperature for 10 min and absorbance was measured at 540 nm with the use of a microplate reader. Nitrite […] concentrations were calculated using a sodium nitrite standard curve.
Effects of melanocortin peptides on cytokine and NO production were evaluated by repeated measures analysis of variance followed by Dunnet's test for specific comparisons. Probability values less than 0.05 were considered significant.

[4] = tested on: C. albicans killing by human neutrophils; experiment: C. albicans killing by human neutrophils; settings: 10^−12M to 10^−4M; 2 hours at 37° C.; p<0.01
Procedure: Venous blood (20 ml) from health volunteers was anticoagulated with heparin. Neutrophils were isolated using dextran sedimentation and Ficoll-Hypaque (Sigma Chemical Co., St. Louis, […]., USA) centrifugation. Erythrocytes were lysed via hypotonic shock. Neutrophils represented at least 97% of the cell suspension. Cell viability, estimated by trypan blue exclusion, was >98%. Neutrophils were suspended to a final concentration in HBSS.
C. albicans (1×10^6) were opsonized with human AB serum in a shaking water bath for 30 minutes at 37° C. […] After incubation, the culture tubes were placed on ice to stop growth and extracellular organisms were washed twice with centrifugation at 1000×g at 4° C. A 2.5% sodium desoxycholoate solution was added to obtain a suspension of 10^6 cells/ml. Two 1/100 serial dilutions in HBSS were made to obtain a final suspension of 100 cells/ml. Aliquots of 1 ml were dispensed on blood agar plates and incubated for 48 hours at 37° C. Colony forming units (CFUs) were counted at the end of the incubation period. Experiments were run in triplicate and repeated using blood from 5 different donors.

[5] = microglia stimulated with LPS+IFN-γ for 24 hr, micromolar concentrations

| Substance | cAMP accumulation [1] | concentration of strongest effect on cAMP accumulation [1] | increase in cAMP relative to equimolar forskolin [2] | cAMP content in the yeast [2] | concentration most effective at inhibiting cytokine formation [3] | killing of C. albicans by human neutrophils [4] | cAMP accumulation in conjunction with LPS and IFN-γ ([1]; peptide 10 μM with LPS+IFN-γ, forskolin 100 μM as comparison) | reduction of production of IL-6 [3, 5] | reduction of production of NO2^− [3, 5] | reduction of production of TNF-α [3, 5] |
| --- | --- | --- | --- | --- | --- | --- | --- | --- | --- | --- |
| Ac-Lys-Pro-Val-NH2 [α-MSH(11-13)] | increased cAMP accumulation | 50 µM | same order of magnitude | enhanced cAMP content | 1 µM | enhanced the killing | – | – | – | – |
| SYSMEHFRWGKPV [α-MSH(1-13)] | increased cAMP accumulation | 10 µM | – | enhanced cAMP content | 10 µM | enhanced the killing | more effective of the two | 31% and 50% | 42% and 40% | 43% and 45% |
